Measured values reported in the NIST ThermoML archive (doi:10.1016/j.jct.2016.03.027).
± gives the expanded uncertainty stated by the source.

Experiment: wn = mass fraction of the nth substance listed
Conditions: 298.15 K, 100 kPa, Liquid, Vibrating tube method

## O=C1OCCO1 [ethylene carbonate] + O
w1 = 0.1
  mass density: 1026.64 ± 1.2 kg/m3
w1 = 0.2
  mass density: 1056.71 ± 1.2 kg/m3
w1 = 0.3
  mass density: 1087.25 ± 1.2 kg/m3
w1 = 0.4
  mass density: 1118.6 ± 1.2 kg/m3
